Values joined by “and” are separate entries in the source; they are usually repeats but may differ in a detail not shown here. Identical values can stand only once.
How the values were obtained:
CYP2D6 = CYP2D6 (Homo sapiens, UniProt P10635); assay: clinical; conditions: in vivo, 4 mg
[1] = dose-Cmax and dose-AUC models / log-log regression from Phase 1 data
Procedure: In order to contextualize PK parameters of a 75 mg dose, dose-Cmax and dose-AUC models were created using data from Phase 1 studies.

[2] = Phase 1 ABPM study, ambulatory blood pressure and heart rate in OAB subjects, 28 days; type: in vivo, human
Procedure: The objectives and endpoints were as described below. “Mean daytime” ABPM endpoints are calculated as the mean of all valid ABPM readings while the subject was awake during the 24-hour monitoring session. “Mean 24 hr” ABPM endpoints are calculated as the mean of all valid ABPM readings during the 24 hr monitoring session.
For the analysis of the ABPM endpoints (CFB to Day 29 of systolic and diastolic blood pressure, and heart rate), a generalized linear model (GLM) was used. […] The analysis model for each efficacy endpoint included terms for treatment, age group (≤55 vs >55 years), sex (Male vs Female), and pre-existing hypertension (Yes vs No), and baseline score.
Primary inferences were drawn from treatment differences for the CFB at Day 29 from the GLM. […] To test the primary hypothesis in Section 85, the upper limit of the two-sided 90% confidence interval was compared to 3.5, and the null hypothesis was rejected if the upper limit was strictly less than 3.5.
The 24-mean ambulatory baseline for systolic and diastolic blood pressure, and heart rate was the arithmetic mean of all valid measurements between the time of cuff-fitting on Day −1 to cuff-removal on Day 1. The 24-hour mean at Day 29 was arithmetic mean of all valid measurements between the time of cuff-fitting on Day 28 to cuff removal on Day 29.
The maximum SBP, DBP and HR in the tmax window at baseline was the maximum of the hourly means of valid measurements from 0.5 to 6.5 hours after the time of cuff fitting on Day −1. On Day 28, the maximum SBP, DBP and HR in the tmax window was the maximum of the hourly means of valid measurements from 0.5 to 6.5 hours after dose.
The mean daytime ambulatory baseline for systolic and diastolic blood pressure, and heart rate was the arithmetic mean of all measurements taken during the time interval in which the subject was awake. The same definition was applied to Day 29 measurements.

[3] = estimated 75 mg vs 200 mg single dose
[4] = estimated 75 mg vs 400 mg single dose
[5] = vibegron 75 mg/day, 4 weeks, full analysis set

Chain of CYP2D6 (P10635 whole entry): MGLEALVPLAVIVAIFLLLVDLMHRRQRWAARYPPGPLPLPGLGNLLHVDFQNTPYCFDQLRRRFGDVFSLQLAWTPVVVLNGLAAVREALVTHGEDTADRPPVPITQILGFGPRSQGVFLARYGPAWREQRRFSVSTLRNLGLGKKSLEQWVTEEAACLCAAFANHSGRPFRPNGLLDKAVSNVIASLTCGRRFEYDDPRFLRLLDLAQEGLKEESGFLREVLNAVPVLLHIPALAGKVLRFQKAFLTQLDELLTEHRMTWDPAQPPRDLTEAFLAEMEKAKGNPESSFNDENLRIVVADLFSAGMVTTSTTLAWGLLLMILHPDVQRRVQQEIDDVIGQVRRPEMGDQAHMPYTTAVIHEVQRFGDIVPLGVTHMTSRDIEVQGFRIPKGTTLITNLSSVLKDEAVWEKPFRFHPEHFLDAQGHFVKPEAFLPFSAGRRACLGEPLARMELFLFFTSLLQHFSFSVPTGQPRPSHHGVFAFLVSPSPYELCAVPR

SMILES: Cc1ccc(O)c([C@H](CCN(C(C)C)C(C)C)c2ccccc2)c1 [Tolterodine ER, tolterodine, reference compound]
- AUC(0-t) (CYP2D6): 28.4 ng·h/mL
- half-life (CYP2D6): 10 h

SMILES: O=C(Nc1ccc(C[C@@H]2CC[C@H]([C@H](O)c3ccccc3)N2)cc1)[C@@H]1CCc2nccc(=O)n21 [Vibegron, (6S)-N-[4-[[(2S,5R)−5-[(R)-hydroxy(phenyl)methyl]pyrrolidin−2-yl]methyl]phenyl]−4-oxo−7,8-dihydro−6H-pyrrolo[1,2-a]pyrimidine−6-carboxamide]
- AUC of 75 mg dose lower than 200 mg single dose [1, 3]: ~2 fold
- Cmax of 75 mg dose lower than 200 mg single dose [1, 3]: approximately 3.3 fold
- AUC of 75 mg dose lower than 400 mg single dose [1, 4]: ~6 fold
- Cmax of 75 mg dose lower than 400 mg single dose [1, 4]: ~9.2 fold
- increase in Cmax with increase in dose from 50 to 100 mg ([1]; vibegron 50 vs 100 mg): ~3 fold
- reduction in Cmax with a 25% reduction in dose (100 mg to 75 mg) ([1]; vibegron 75 vs 100 mg): ~40%
- ABPM Max (0.5-6.5 h) DBP Change from Baseline to Day 28, LSMean ([2]; 75 mg, FAS): 0.63 mmHg
- ABPM Max (0.5-6.5 h) DBP Change from Baseline to Day 28, Treatment Difference Vibegron-Placebo ([2]; 75 mg, FAS): 1.16 mmHg
- ABPM Max (0.5-6.5 h) HR Change from Baseline to Day 28, LSMean ([2]; 75 mg, FAS): 1.76 bpm
- ABPM Max (0.5-6.5 h) HR Change from Baseline to Day 28, Treatment Difference Vibegron-Placebo ([2]; 75 mg, FAS): 1.48 bpm
- ABPM Max (0.5-6.5 h) SBP Change from Baseline to Day 28, LSMean ([2]; 75 mg, FAS): 1.96 mmHg
- ABPM Max (0.5-6.5 h) SBP Change from Baseline to Day 28, Treatment Difference Vibegron-Placebo ([2]; 75 mg, FAS): 1.67 mmHg
- ABPM Mean 24 H DBP Change from Baseline to Day 28, LSMean ([2]; 75 mg, FAS): 0.51 mmHg
- ABPM Mean 24 H DBP Change from Baseline to Day 28, Treatment Difference Vibegron-Placebo ([2]; 75 mg, FAS): −0.19 mmHg
- ABPM Mean 24 H HR Change from Baseline to Day 28, LSMean ([2]; 75 mg, FAS): 0.80 bpm
- ABPM Mean 24 H HR Change from Baseline to Day 28, Treatment Difference Vibegron-Placebo ([2]; 75 mg, FAS): 0.96 bpm
- ABPM Mean 24 H SBP Change from Baseline to Day 28, LSMean ([2]; 75 mg, FAS): 0.60 mmHg
- ABPM Mean 24 H SBP Change from Baseline to Day 28, Treatment Difference Vibegron-Placebo ([2]; 75 mg, FAS): 0.57 mmHg
- ABPM Mean Daytime DBP Change from Baseline to Day 28, LSMean ([2]; 75 mg, FAS): 0.50 mmHg
- ABPM Mean Daytime DBP Change from Baseline to Day 28, Treatment Difference Vibegron-Placebo ([2]; 75 mg, FAS): −0.04 mmHg
- ABPM Mean Daytime HR Change from Baseline to Day 28, LSMean ([2]; 75 mg, FAS): 1.08 bpm
- ABPM Mean Daytime HR Change from Baseline to Day 28, Treatment Difference Vibegron-Placebo ([2]; 75 mg, FAS): 0.88 bpm
- Mean Daytime ABPM SBP Change from Baseline to Day 28, LSMean ([2]; 75 mg, FAS): 0.82 mm Hg
- Mean Daytime ABPM SBP Change from Baseline to Day 28, Treatment Difference Vibegron-Placebo ([2]; 75 mg, FAS): 0.81 mm Hg
- Change from Baseline to Day 28 for Maximum (0.5 to 6.5 hrs) ABPM SBP, LSMean ([2]; 75 mg, PPS): 1.0 mm Hg
- Change from Baseline to Day 28 for Maximum (0.5 to 6.5 hrs) ABPM SBP, Treatment Difference Vibegron-Placebo ([2]; 75 mg, PPS): 1.05 mm Hg
- Mean Daytime ABPM SBP Change from Baseline to Day 28, LSMean ([2]; 75 mg, PPS): 0.19 mm Hg
- Mean Daytime ABPM SBP Change from Baseline to Day 28, Treatment Difference Vibegron-Placebo ([2]; 75 mg, PPS): 0.41 mm Hg
- ABPM DBP Day 28 change from baseline ≥10 mmHg, subjects ([2]; Maximum (0.5-6.5 h), FAS): 9 (9.8) n (%)
- ABPM HR Day 28 change from baseline ≥10 bpm, subjects ([2]; Maximum (0.5-6.5 h), FAS): 20 (21.7) n (%)
- ABPM SBP Day 28 change from baseline ≥15 mmHg, subjects ([2]; Maximum (0.5-6.5 h), FAS): 6 (6.5) n (%)
- ABPM DBP Day 28 change from baseline ≥10 mmHg, subjects ([2]; Mean 24-hour, FAS): 1 (1.0) n (%)
- ABPM HR Day 28 change from baseline ≥10 bpm, subjects ([2]; Mean 24-hour, FAS): 3 (3.1) n (%)
- ABPM SBP Day 28 change from baseline ≥15 mmHg, subjects ([2]; Mean 24-hour, FAS): 2 (2.1) n (%)
- ABPM DBP Day 28 change from baseline ≥10 mmHg, subjects ([2]; Mean Daytime, FAS): 2 (2.1) n (%)
- ABPM HR Day 28 change from baseline ≥10 bpm, subjects ([2]; Mean Daytime, FAS): 3 (3.1) n (%)
- ABPM SBP Day 28 change from baseline ≥15 mmHg, subjects ([2]; Mean Daytime, FAS): 2 (2.1) n (%)
- effects on blood pressure (overall conclusion of ABPM study) ([2]; vibegron 75 mg, 28 days): no clinically relevant effects on blood pressure
- mean change of daytime ambulatory systolic blood pressure from baseline, difference from placebo (primary endpoint) ([2]; vibegron 75 mg, 28 days): less than 1 mm Hg
- mean change from baseline in daytime ambulatory systolic blood pressure ([2]; vibegron 75 mg/day, 4-week treatment, full analysis set): 0.89 mmHg
- mean change of 24-hour ambulatory diastolic blood pressure from baseline, lower than placebo by ([2]; vibegron 75 mg/day, 4 weeks): 0.19 mmHg
- mean change of 24-hour ambulatory heart rate from baseline ([2]; vibegron 75 mg/day, 4 weeks): about 0.80
- mean change of 24-hour ambulatory heart rate from baseline, higher than placebo by ([2]; vibegron 75 mg/day, 4 weeks): 0.96 bpm
- mean change of 24-hour ambulatory systolic blood pressure from baseline, higher than placebo by ([2]; vibegron 75 mg/day, 4 weeks): 0.57 mmHg
- mean change of daytime ambulatory diastolic blood pressure from baseline, lower than placebo by ([2]; vibegron 75 mg/day, 4 weeks): 0.04 mmHg
- mean change of daytime ambulatory heart rate from baseline ([2]; vibegron 75 mg/day, 4 weeks): about 1.08 bpm
- mean change of daytime ambulatory heart rate from baseline, higher than placebo by ([2]; vibegron 75 mg/day, 4 weeks): 0.88 bpm
- mean increase in 24-hour ambulatory diastolic blood pressure from baseline ([2]; vibegron 75 mg/day, 4 weeks): 0.51 mmHg
- mean increase in 24-hour ambulatory systolic blood pressure from baseline ([2]; vibegron 75 mg/day, 4 weeks): 0.61 mmHg and 0.60 mmHg
- mean change of daytime ambulatory systolic blood pressure from baseline, higher than placebo by [2, 5]: 0.81 mmHg
- mean daytime ambulatory systolic upper bound of the 90% confidence interval (Table 103) [2, 5]: 1.11 mm Hg
- mean daytime ambulatory systolic blood pressure, upper bound of 90% confidence interval of difference from placebo ([2]; vibegron 75 mg/day, 4 weeks, full analysis set (Table 101)): 2.49 mm Hg
- mean change of daytime ambulatory systolic blood pressure from baseline, higher than placebo by ([2]; vibegron 75 mg/day, 4 weeks, per protocol set): 0.41 mmHg
- mean daytime ambulatory systolic blood pressure, upper bound of 90% confidence interval of difference from placebo ([2]; vibegron 75 mg/day, 4 weeks, per protocol set (Table 102)): 2 mm Hg

From patent US20230027066A1 (Urovant Sciences GmbH, priority 2019, published 2023)
